Measurements as given in US8933039B2 (NPS Pharmaceuticals, Inc., priority 1995, dated 2015).
Non-standard residues stand in square brackets, D forms with d. Residues, ends and D or L forms follow the SMILES beside them. Pen = CC(C)(S)[C@H](N)C(=O)O; Aib = CC(C)(N)C(=O)O

Assays:
DPP-IV = DPP-IV (Homo sapiens, UniProt P27487); assay: Assay for resistance to dipeptidyl peptidase IV (RP-HPLC of cleavage product); conditions: human, isolated human placental DPP-IV (dipeptidyl peptidase IV), pH 7.4, % Cleaved by DPP-IV, as Example 3: human placental DPP-IV, 37° C., PBS pH 7.4
CD1 mice = assay: Intestinotrophic activity assessment: small bowel weight in mice; type: in vivo; conditions: for % Activity (small bowel inducing activity relative to native rat GLP-2(1-33) = 100%): mice, as Example 4; for % Increase in small bowel weight: CD1 mice, 2.5 μg peptide s.c. b.i.d. in PBS, sacrificed 10 or 14 days, relative to vehicle only
How it was run: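 Activity expressed against native rat GLP-2(1-33) (100%) and as percent bowel-weight change over vehicle controls, from excised pylorus-to-cecum small bowel. Dosing: 2.5 μg peptide subcutaneously twice daily to 6-week female CD1 mice (n=3-4), killed at day 10 or 14 after fasting ≥20 h.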

Chain of DPP-IV (P27487 whole entry): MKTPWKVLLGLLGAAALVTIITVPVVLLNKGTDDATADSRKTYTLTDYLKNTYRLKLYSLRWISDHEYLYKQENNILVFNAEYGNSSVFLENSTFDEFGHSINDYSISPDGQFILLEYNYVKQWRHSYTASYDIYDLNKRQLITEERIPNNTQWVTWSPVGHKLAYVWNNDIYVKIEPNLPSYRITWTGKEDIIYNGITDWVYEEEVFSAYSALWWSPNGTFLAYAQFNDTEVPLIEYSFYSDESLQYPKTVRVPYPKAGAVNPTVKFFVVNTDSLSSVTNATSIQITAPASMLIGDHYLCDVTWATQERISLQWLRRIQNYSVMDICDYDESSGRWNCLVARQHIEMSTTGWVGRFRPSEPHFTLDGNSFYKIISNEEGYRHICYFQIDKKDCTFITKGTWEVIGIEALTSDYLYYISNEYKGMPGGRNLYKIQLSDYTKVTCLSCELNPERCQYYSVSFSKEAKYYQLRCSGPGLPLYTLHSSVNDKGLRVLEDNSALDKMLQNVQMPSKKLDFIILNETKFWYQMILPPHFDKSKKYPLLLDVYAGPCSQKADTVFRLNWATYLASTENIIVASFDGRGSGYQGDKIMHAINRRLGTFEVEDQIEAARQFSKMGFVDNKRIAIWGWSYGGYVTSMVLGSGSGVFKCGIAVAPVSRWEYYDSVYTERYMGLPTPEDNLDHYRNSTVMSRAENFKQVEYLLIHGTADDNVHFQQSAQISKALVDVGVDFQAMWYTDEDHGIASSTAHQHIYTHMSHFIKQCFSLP

Row | Compound | metabolised at 24 h, 0.19 mg/ml (DPP-IV) [%] | % Activity (small bowel inducing activity relative to native rat GLP-2(1-33) = 100%) (CD1 mice) [%] | % Increase in small bowel weight (CD1 mice) [%]
1 | CC[C@H](C)[C@H](NC(=O)[C@H](Cc1ccccc1)NC(=O)[C@H](CC(=O)O)NC(=O)[C@H](CCCNC(=N)N)NC(=O)[C@H](C)NC(=O)[C@H](C)NC(=O)[C@H](CC(C)C)NC(=O)[C@H](CC(N)=O)NC(=O)[C@H](CC(=O)O)NC(=O)[C@H](CC(C)C)NC(=O)[C@@H](NC(=O)[C@@H](NC(=O)[C@H](CC(N)=O)NC(=O)[C@H](CCSC)NC(=O)[C@H](CCC(=O)O)NC(=O)[C@H](CC(=O)O)NC(=O)[C@H](CO)NC(=O)[C@H](Cc1ccccc1)NC(=O)[C@H](CO)NC(=O)CNC(=O)[C@H](CC(=O)O)NC(=O)[C@@H](NC(=O)[C@@H](N)Cc1c[nH]cn1)C(C)(C)S)[C@@H](C)O)[C@@H](C)CC)C(=O)N[C@@H](CC(N)=O)C(=O)N[C@@H](Cc1c[nH]c2ccccc12)C(=O)N[C@@H](CC(C)C)C(=O)N[C@H](C(=O)N[C@@H](CCC(N)=O)C(=O)N[C@H](C(=O)N[C@@H](CCCCN)C(=O)N[C@H](C(=O)N[C@H](C(=O)N[C@@H](CC(=O)O)C(=O)O)[C@@H](C)O)[C@@H](C)CC)[C@@H](C)O)[C@@H](C)CC [[Pen2]hGLP-2(1-33)] (H-H[Pen]DGSFSDEMNTILDNLAARDFINWLIQTKITD-OH) | 20 | 58 | 
2 | H-HGAGSFSDEMNTILDNLAARDFINWLIQTKITD-OH [[Gly2,Ala3]hGLP-2(1-33)] | 0 | 44 | 18
3 | CC[C@H](C)[C@H](NC(=O)[C@H](Cc1ccccc1)NC(=O)[C@H](CC(=O)O)NC(=O)[C@H](CCCNC(=N)N)NC(=O)[C@H](C)NC(=O)[C@H](C)NC(=O)[C@H](CC(C)C)NC(=O)[C@H](CC(N)=O)NC(=O)[C@H](CC(=O)O)NC(=O)[C@H](CC(C)C)NC(=O)[C@@H](NC(=O)[C@@H](NC(=O)[C@H](CC(N)=O)NC(=O)[C@H](CCSC)NC(=O)[C@H](CCC(=O)O)NC(=O)[C@H](CC(=O)O)NC(=O)[C@H](CO)NC(=O)[C@H](Cc1ccccc1)NC(=O)[C@H](CO)NC(=O)CNC(=O)[C@H](CC(=O)O)NC(=O)C(C)(C)NC(=O)[C@@H](N)Cc1c[nH]cn1)[C@@H](C)O)[C@@H](C)CC)C(=O)N[C@@H](CC(N)=O)C(=O)N[C@@H](Cc1c[nH]c2ccccc12)C(=O)N[C@@H](CC(C)C)C(=O)N[C@H](C(=O)N[C@@H](CCC(N)=O)C(=O)N[C@H](C(=O)N[C@@H](CCCCN)C(=O)N[C@H](C(=O)N[C@H](C(=O)N[C@@H](CC(=O)O)C(=O)O)[C@@H](C)O)[C@@H](C)CC)[C@@H](C)O)[C@@H](C)CC [[Aib2]hGLP-2(1-33)] (H-H[Aib]DGSFSDEMNTILDNLAARDFINWLIQTKITD-OH) | 0 | 202 | 

Continued, in another order:

Row | metabolised at 24 h, 0.19 mg/ml (DPP-IV) [%] | Compound | % Activity (small bowel inducing activity relative to native rat GLP-2(1-33) = 100%) (CD1 mice) [%] | % Increase in small bowel weight (CD1 mice) [%]
4 | 100 | H-YADGSFSDEMNTILDNLATRDFINWLIQTKITD-OH [[Tyr1]ratGLP-2(1-33)] | 81 | 37
5 | 0 | H-HSDGSFSDEMNTILDNLAARDFINWLIQTKITD-OH [[Ser2]hGLP-2(1-33)] | 167 | 
